US20130281493A1, “Method for Treating Cancer Harboring a p53 Mutation” (The Trustees of The University of Columbia in the City of …, priority 2010, published 2013)
Each block holds one compound with its values, some of them ahead of it.

Assays:
[1] = system: MDA-468.shp53 cells; experiment: Add-back in 3D culture of MDA-468.shp53 cells depleted of mutant p53 (+DOX); format: cell-based; conditions: MVA and MVAP added together, 1 mM each, from Day 1, 8 days
Experimental: (§4) Three-dimensional culture was carried out as previously described (Debnath et al., 2003). Briefly, 8-well chamber slides were lined with 50 μl growth factor reduced Matrigel (BD Biosciences). […] Cells were refed with Assay Medium containing 2% Matrigel every 4 days. For RNA/protein analysis from 3D cultures, 35 mm plates were lined with 500 μl Matrigel and cells were seeded at a density of 225,000 cells/plate in Assay Medium+2% Matrigel. Cells were harvested using Cell Recovery Solution (BD Biosciences) according to the manufacturer's instructions.

[2] = system: MCF10A cells; experiment: 3D culture of non-malignant MCF10A mammary epithelial cells (acinar morphology, luminal clearance); format: cell-based, human; conditions: 1 mM, 8 days
Experimental: Cells were fixed using 2% formaldehyde at room temperature for at least 30 min. […] Primary antibodies were incubated with the cultures for 1-2 hr at room temperature, followed by washing, and addition of fluorescently-conjugated secondary antibodies for 40 min at room temperature. Nuclei were counterstained with DRAQ5 (Cell Signaling #4084) or Propidium Iodide (Sigma #P4170). Confocal microscopy was conducted using an Olympus IX81 confocal microscope and analyzed using Fluoview software. Cells were treated on Day 1 or Day 4 of the 3D protocol (as described in the figure legends) and refed every 4 days with fresh drug. […] This range approximates clinically achievable serum concentrations in human patients (Dimitroulakos et al., 1999; Wong et al., 2002), • 6-Fluoromevalonate (200 μM) as previously described (Cuthbert and Lipsky, 1990) and YM-53601, FTI-277 or GTI-2133 at or above their reported IC50 in cells (Lerner et al., 1995; Ugawa et al., 2000; Vasudevan et al., 1999), and with • Fatostatin at either 2 μM or 20 μM as previously described (Kamisuki et al., 2009).

[3] = system: MDA-231 cells; experiment: 3D culture of MDA-231 breast cancer cells (growth, invasive morphology); format: cell-based
Experimental: (§1) Cells were then seeded at a density of 5,000 cells/well in Assay Medium (DMEM/F12+2% Horse Serum+10 μg/ml Insulin+0.5 μg/ml Hydrocortisone [+5 ng/ml EGF for MCF10A cultures]) containing 2% Matrigel.
(§2) Cells were fixed using 2% formaldehyde at room temperature for at least 30 min. […] Primary antibodies were incubated with the cultures for 1-2 hr at room temperature, followed by washing, and addition of fluorescently-conjugated secondary antibodies for 40 min at room temperature. Nuclei were counterstained with DRAQ5 (Cell Signaling #4084) or Propidium Iodide (Sigma #P4170). Confocal microscopy was conducted using an Olympus IX81 confocal microscope and analyzed using Fluoview software.
(§3) Cells were treated on Day 1 or Day 4 of the 3D protocol (as described in the figure legends) and refed every 4 days with fresh drug. […] This range approximates clinically achievable serum concentrations in human patients (Dimitroulakos et al., 1999; Wong et al., 2002), • 6-Fluoromevalonate (200 μM) as previously described (Cuthbert and Lipsky, 1990) and YM-53601, FTI-277 or GTI-2133 at or above their reported IC50 in cells (Lerner et al., 1995; Ugawa et al., 2000; Vasudevan et al., 1999), and with • Fatostatin at either 2 μM or 20 μM as previously described (Kamisuki et al., 2009).

[4] = system: MDA-468 cells; experiment: 3D culture of MDA-468 breast cancer cells (growth, morphology); format: cell-based
Experimental: as §1, §2, §3

[5] = target: geranylgeranyl transferase (Homo sapiens, UniProt P49354+P53609); conditions: low micromolar concentrations; Lerner et al., 1995; cited from earlier work
[6] = system: squalene synthesis; conditions: low micromolar concentrations; Lerner et al., 1995; cited from earlier work
[7] = target: farnesyltransferase (Homo sapiens, UniProt P49354+P49356); conditions: whole cells; Lerner et al., 1995; cited from earlier work
[8] = system: MDA-231.shp53 cells; conditions: 25 μM from Day 1, 8 days, +DOX
Experimental: as §4

[9] = system: MDA-231 cells; experiment: MDA-231 subcutaneous tumor growth in NOD-SCID mice; format: in vivo; conditions: 200 mg/kg/day, after 21 days of treatment
Experimental: 2×10^6 MDA-231 cells were injected subcutaneously into 8 week-old NOD-SCID mice. […] Tumor measurements were performed weekly using calipers. After 21 days of treatment, mice were sacrificed and tumors were extracted and weighed. Tumor volumes as a function of time (left) and tumor weights at day 21 (right) are presented. *denotes p<0.01, **denotes p<0.001 using a two-tailed students t-test. […] 2×10^6 MDA-231 cells were injected subcutaneously into 8 week-old NOD-SCID mice. […] Tumor measurements were performed weekly using calipers. After 21 days of treatment, mice were sacrificed and tumors were extracted and weighed. Tumor volumes as a function of time (left) and tumor weights at day 21 (right) are presented. *denotes p<0.01, **denotes p<0.001 using a two-tailed students t-test.

[10] = Serum level at the dose used in the mouse experiments; format: in vivo; conditions: mice, 200 mg/kg/day
[11] = target: T1, squalene synthase (Homo sapiens, UniProt P37268); conditions: Ugawa et al., 2000; cited from earlier work
T1 sequence (P37268 1-417): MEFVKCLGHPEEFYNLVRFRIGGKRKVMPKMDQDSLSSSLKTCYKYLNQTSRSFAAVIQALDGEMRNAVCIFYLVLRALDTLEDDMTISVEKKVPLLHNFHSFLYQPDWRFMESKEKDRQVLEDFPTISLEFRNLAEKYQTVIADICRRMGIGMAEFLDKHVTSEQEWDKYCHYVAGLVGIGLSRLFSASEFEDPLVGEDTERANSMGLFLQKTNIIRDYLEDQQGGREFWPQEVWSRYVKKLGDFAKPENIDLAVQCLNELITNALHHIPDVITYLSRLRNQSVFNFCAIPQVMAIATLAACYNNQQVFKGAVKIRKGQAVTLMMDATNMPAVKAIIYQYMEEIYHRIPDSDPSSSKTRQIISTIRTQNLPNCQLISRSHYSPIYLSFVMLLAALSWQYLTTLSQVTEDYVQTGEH

SMILES: C[C@@](O)(CCO)CC(=O)O (racemic) [mevalonic acid]
effect on phenotypic reversion caused by mutant p53 knockdown [1]: dramatically inhibit | luminal clearance in MCF10A cells [2]: sufficient to block luminal clearance | rescue of the phenotypic effects of statin treatment in 3D culture ([3]; MDA-231 treated with Simvastatin 1 μM, supplemented): blocked many of the phenotypic effects of statins | rescue of the phenotypic effects of statin treatment in 3D culture ([4]; MDA-468 treated with Simvastatin 1 μM, supplemented): blocked many of the phenotypic effects of statins

SMILES: O=C(O)CC(O)(CF)CCO (stereo not drawn) [6-fluoromevalonate, 6-Fluoromevalonate]
phenotypic effects in 3D culture compared with HMG-CoA reductase inhibition by statins ([3]; MDA-231, 200 μM, added Day 1, 8 days): remarkably similar phenotypic effects | phenotypic effects in 3D culture compared with HMG-CoA reductase inhibition by statins ([4]; MDA-468, 200 μM, added Day 1, 8 days): remarkably similar phenotypic effects

SMILES: COC(=O)[C@H](CCSC)NC(=O)c1ccc(NC[C@@H](N)CS)cc1-c1ccccc1 [FTI-277]
effect on geranylgeranyl transferase [5]: no effect | effect on squalene synthesis [6]: no effect | concentrations that block farnesylation via inhibition of farnesyltransferase [7]: nanomolar | effect on growth of MDA-231 cells in 3D culture ([3]; 1 uM, added Day 1, 8 days): only a mild effect

SMILES: CC(C)C[C@H](NC(=O)c1ccc(NCc2cnc[nH]2)cc1-c1cccc2ccccc12)C(=O)O [GTI-2133]
effect on growth of MDA-231 cells in 3D culture ([3]; 1 uM, added Day 1, 8 days): profound impact | effect on invasive morphology of MDA-231 cells in 3D culture ([3]; 1 uM, added Day 1, 8 days): profound impact

SMILES: CC(C)=CCC/C(C)=C/CC/C(C)=C/CC/C(C)=C/COP(=O)(O)OP(=O)(O)O [Geranylgeranyl pyrophosphate]
rescue of the morphological effects of mutant p53 depletion [8]: partially rescue | rescue of the morphological effects of HMG-CoA reductase inhibition ([3]; MDA-231 with Simvastatin 1 μM, 25 μM GGPP, 8 days): partially rescue

SMILES: CC[C@H](C)C(=O)O[C@H]1CCC=C2C=C[C@H](C)[C@H](CC[C@@H]3C[C@@H](O)CC(=O)O3)[C@H]21 [Mevastatin]
3D morphology of MDA-231 cells ([3]; 1 μM, added Day 4, 13 days): profoundly affects | 3D morphology of MDA-468 cells ([4]; 1 μM, added Day 4, 13 days): profoundly affects

serum levels [10]: about 100 micromolar
SMILES: CCC(C)(C)C(=O)O[C@H]1C[C@@H](C)C=C2C=C[C@H](C)[C@H](CC[C@@H]3C[C@@H](O)CC(=O)O3)[C@H]21 [Simvastatin]
reduction of tumor size [9]: about 40%

SMILES: F/C(COc1ccc2c(c1)[nH]c1ccccc12)=C1/CN2CCC1CC2 [YM-53601]
effect on growth of MDA-231 cells in 3D culture ([3]; 1 uM, added Day 1, 8 days): only a mild effect | killing of cancer cells in 3D culture ([3]; 10 uM): killed all the cancer cells | concentrations that inhibit squalene synthase [11]: submicromolar
